These results are taken from ChEMBL document CHEMBL1201862, “PubChem BioAssay data set” (2004).

Common to all, as to test: NCI tumour cell line growth inhibition, 48 h
In assay [1] the test system is DLD-1.
Assay [2] deals with DMS-114.
The test system of assay [3] is DMS-273.
Assay [4] deals with KM-20L2.
Assay [5] has as its system LXFL 529.
The test system of assay [6] is M19-MEL.
The subject of assay [7] is XF498.
Assay [8] has as its system HOP-18.
The subject of assay [9] is RXF 631.

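Method: 48-hour compound exposure of cells in 96-well plates, five concentrations, linear interpolation of endpoints. GI50 = concentration required for 50% inhibition of growth.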 The source made the active and inactive calls. Rule as the data show it: active = GI50 up to about 1.1 µM and inactive = higher. A value given as a limit tells only on which side of the number the result lay.

For `O=C(N/N=C1/C(=O)N(c2ccc(Cl)cc2Cl)C(=O)C(=O)C1c1nc2ccccc2o1)c1ccccc1O` (stereo not given), the GI50 was 33 µM (inactive) in assay [1]; 26.4 µM (inactive) in assay [2]; > 10 µM (inactive) in [3]; > 100 µM (inactive) in assay [4]; 37.6 µM (inactive) in [5]; 38.3 µM (inactive) in assay [6]. Also, the GI50 in assay [7] was 20.4 µM (inactive).
As for `CCOc1ccc(NC(=O)CC2SC(Nc3ccc(Cl)cc3)=NC2=O)cc1` (stereo not given), the GI50 was 36 µM (inactive) in [1]; > 100 µM (inactive) in [2]; > 100 µM (inactive) in assay [3]; > 100 µM (inactive) in [8]; > 100 µM (inactive) in assay [4]; 41.8 µM (inactive) in assay [5]. Moreover, the GI50 in [6], in assay [9] and in [7] was > 100 µM (inactive) throughout.
For the compound `COC(=O)[C@H]1CC(=O)C=C2CCCC21` (stereo not given in full), the GI50 in assay [1], in [2], in [3], in [5], in assay [6] and in assay [9] was > 100 µM (inactive) in each case. Further, in assay [7], the GI50 was > 100 µM (inactive).
Regarding `O=c1/c(=C/c2ccc3c(c2)OCO3)sc2nnc(Cc3ccccc3)n12`, the GI50 in assay [1] was > 100 µM (inactive); in assay [2], > 100 µM (inactive); in assay [3], > 100 µM (inactive); in assay [8] it was 88.1 µM (inactive); in assay [4], > 100 µM (inactive); in assay [5] it was > 100 µM (inactive). Also, the GI50 in assay [6] is > 100 µM (inactive).
For `COc1ccccc1-c1cc(=O)c2ccccc2[nH]1`, the GI50 is > 100 µM (inactive) in assay [1]; 57.9 µM (inactive) in assay [3]; > 100 µM (inactive) in assay [4]; > 100 µM (inactive) in assay [5]; > 100 µM (inactive) in assay [6].
Turning to `C1=NN(Cc2ccccc2)C(N(Cc2ccccc2)Cc2ccccc2)N1` (stereo not given), the GI50 in assay [1] is 21.1 µM (inactive); in [2], 12.7 µM (inactive); in assay [3] it was 15.1 µM (inactive); in assay [8], 23.3 µM (inactive); in assay [4], 14.1 µM (inactive); in assay [5], 12.1 µM (inactive). Also, the values for the GI50 in assay [6] and in assay [9] were 17.5 µM (inactive) and 16.1 µM (inactive), respectively.
Take `O=C(NC(=O)c1c(Cl)nc2sccn12)Nc1ccc(Cl)cc1`: the GI50 in assay [1] was > 48.3 µM (inactive); in assay [2] it was > 71.3 µM (inactive); in [3] it was > 46.3 µM (inactive); in [4], > 100 µM (inactive); in assay [6], > 100 µM (inactive); in [9], > 79.4 µM (inactive). For the same compound, in assay [7], the GI50 is 17.9 µM (inactive).
`C=C1C(=O)OC2(C)C3CCC(C3)C12` (stereo not given): the GI50 in [1] was 51.1 µM (inactive); in assay [2], 46.6 µM (inactive); in assay [3] it was 68.4 µM (inactive); in assay [8] it was > 100 µM (inactive); in assay [4] it was 45.1 µM (inactive); in assay [6] it was 44.8 µM (inactive). In assay [7], the GI50 is 29.1 µM (inactive).
As for `COC(=O)C1(C)C=C(Nc2ccccc2)C(=O)N1c1ccccc1` (stereo not given), the GI50 in assay [1] was > 100 µM (inactive); in assay [2], > 100 µM (inactive); in assay [8], > 100 µM (inactive); in assay [5] it was > 100 µM (inactive); in [6], > 100 µM (inactive); in assay [9], 35.5 µM (inactive). Moreover, the GI50 in assay [7] was > 100 µM (inactive).
Regarding `O=C(CSC(=S)N1CCOCC1)Nc1nc2c(s1)CCCC2`, the GI50 in assay [1] is > 100 µM (inactive); in assay [2], 30.1 µM (inactive); in [3], > 100 µM (inactive); in [4], > 100 µM (inactive); in assay [5], > 100 µM (inactive); in [6], 92.5 µM (inactive). For the same compound, the GI50 in assay [7] is 50.1 µM (inactive).
For `C=CCC1(C)CCCCC1(O)C[S+]([O-])c1ccccc1` (stereo not given), the GI50 in assay [1], in assay [2], in [3], in [8], in [4] and in assay [6] was > 100 µM (inactive) throughout. Besides, the GI50 in assay [9] is > 100 µM (inactive).
For the compound `CCOc1ccc(N2C(=O)C3c4[nH]c5ccccc5c4C4CCC(C(C)(C)C)CC4C3C2=O)cc1` (stereo not given), the GI50 in [1] was 88.9 µM (inactive); in [2] it was 50 µM (inactive); in assay [3] it was > 100 µM (inactive); in assay [8] it was > 100 µM (inactive); in assay [4], 77.8 µM (inactive); in assay [5] it was > 100 µM (inactive). In addition, the GI50 in assay [7] was > 100 µM (inactive).
For `N#CCCN(CCC#N)c1ccc(/C=N\c2nc(-c3ccccc3)cs2)cc1`, the GI50 in [1] was > 100 µM (inactive); in assay [2], 73.3 µM (inactive); in assay [3] it was > 100 µM (inactive); in [4], > 100 µM (inactive); in assay [5] it was > 100 µM (inactive); in assay [6], > 100 µM (inactive). Moreover, the values for the GI50 in assay [9] and in [7] were > 100 µM (inactive) and 56.8 µM (inactive), respectively.
As to `COc1cc(O)c(C(=O)CC(C)=O)c(OC)c1`, the GI50 in assay [1], in assay [2], in [3], in assay [8], in [4] and in assay [5] was > 100 µM (inactive) throughout. Besides, the GI50 in [7] is > 100 µM (inactive).
For `CCCCCCCCCCCCC(SCCNC(=O)CCNC(=O)C(O)C(C)(C)COP(=O)(O)OP(=O)(O)OCC1OC(n2cnc3c(N)ncnc32)C(O)C1OP(=O)(O)O)C(=O)NCC(N)=O` (stereo not given), the GI50 in [1] was > 100 µM (inactive); in assay [2], 95.1 µM (inactive); in [3], 41.3 µM (inactive); in assay [8] it was 37.8 µM (inactive); in [4] it was > 100 µM (inactive); in [5], > 100 µM (inactive). In addition, the GI50 in assay [6] and in assay [9] was > 100 µM (inactive) in each case.
Consider `O=[N+]([O-])c1cccc(Nc2nc(Cl)nc(Cl)n2)c1`, for which the GI50 in assay [1], in assay [3], in [4], in assay [5], in [6] and in [9] was > 100 µM (inactive) throughout. Moreover, the GI50 in assay [7] is > 100 µM (inactive).
Consider `O=C(NC1CCCCC1)NS(=O)(=O)c1ccc2c(c1)CCC2` [GLYHEXAMIDE], for which the GI50 in assay [1], in assay [2], in [8], in assay [6], in assay [9] and in [7] was > 100 µM (inactive) throughout.
For `CCC1(O)C(=O)OCc2c1cc1n(c2=O)Cc2cc3c(N)cccc3nc2-1` (stereo not given) [RS-9-Aminocamptothecin], the GI50 in [1] was 0.859 µM (active); in [2], < 0.0104 µM (active); in assay [3], < 0.01 µM (active); in assay [8], 0.0424 µM (active); in assay [4], 0.132 µM (active); in [5], 0.341 µM (active). Further, the figures for the GI50 in assay [6], in assay [9] and in assay [7] were 0.0588 µM (active), 0.0471 µM (active) and 0.145 µM (active), respectively.
